Patent publication US11071735B2, “Treatment of inflammatory conditions and autoimmune diseases with glucose uptake inhibitors” (Kadmon Corporation, LLC, priority 2017, dated 2021)

Key:
Assay type in all cases: cell-based
GLUT1 = biological target: T1, GLUT1 (Homo sapiens, UniProt P11166); assay: glycolysis assay in DLD1 WT cells (rely on GLUT1); settings: DLD1-WT cells; 10 μM oligomycin, one hour
T1 construct: endogenous in cells; host or cells: DLD1 WT cancer cells
T1 sequence (P11166 1-492): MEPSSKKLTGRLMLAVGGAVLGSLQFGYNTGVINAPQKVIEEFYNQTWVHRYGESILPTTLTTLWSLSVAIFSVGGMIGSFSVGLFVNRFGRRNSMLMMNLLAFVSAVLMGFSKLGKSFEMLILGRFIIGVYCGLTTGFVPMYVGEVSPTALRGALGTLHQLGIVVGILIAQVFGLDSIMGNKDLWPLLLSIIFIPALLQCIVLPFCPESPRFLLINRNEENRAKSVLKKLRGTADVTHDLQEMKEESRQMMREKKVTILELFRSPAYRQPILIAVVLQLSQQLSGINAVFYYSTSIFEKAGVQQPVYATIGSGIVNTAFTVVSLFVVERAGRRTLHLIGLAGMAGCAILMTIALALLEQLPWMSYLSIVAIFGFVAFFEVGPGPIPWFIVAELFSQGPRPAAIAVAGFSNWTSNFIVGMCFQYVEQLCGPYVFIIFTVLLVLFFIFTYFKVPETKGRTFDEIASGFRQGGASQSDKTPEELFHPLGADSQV
Description: (§1) Cells were treated with GLUT inhibitors plus oligomycin and subsequently ATP levels were determined using Cell Titer Glo. […] FIG. 1B reports the IC50 of glycolysis inhibition for selected compounds.
(§2) Accordingly, we have investigated the use of inhibitors of GLUT transporters against activated pro-inflammatory immune cells, including but not limited to activated human CD4+ T cells. In order to understand what GLUT transporters are required to sustain glycolysis in activated T cells, we first utilized the syngeneic cancer cell lines DLD1 WT and DLD GLUT1−/− that rely on GLUT1 and GLUT3 expression, respectively, for glucose transport. Within this system, we have identified small molecules that simultaneously have the property of inhibiting both GLUT1 and GLUT3 mediated glucose transport. In addition, we have confirmed the GLUT1-selective nature of a published small molecule inhibitor of GLUT1 (Chem Med Chem. 2016 Oct. 19; 11(20):2261-2271).
(§3) Determination of glucose uptake/GLUT activity (glycolysis assay): HT1080 cells, DLD1 cells (WT and GLUT1−/−) and human CD4+ T cells were plated in 96-well plates. Cells were exposed to the combination of 10 μM Oligomycin (to block mitochondrial-derived ATP) and the glucose uptake inhibitors disclosed herein for one-hour, after which glycolytically-derived ATP was measured with the Cell Titer-Glo assay kit (Promega). Dose-response curves of the glucose uptake inhibitors disclosed herein were used to determine the IC50 for GLUT activity.

GLUT = assay: glycolysis assay (oligomycin + Cell Titer-Glo ATP readout) in HT1080 cells; settings: 10 μM oligomycin, one hour, glycolytically-derived ATP
Description: The combination of inhibitors of both oxidative phosphorylation and glycolysis synergistically suppress cellular ATP levels. Therefore, our assay utilizes the combination of our glucose uptake inhibitors with oligomycin, a well-characterized inhibitor of ATP synthase. Because oligomycin inhibits ATP derived from oxidative phosphorylation, any remaining ATP production is derived from glycolysis. By reading out cellular ATP levels using the Promega
Titer Glo kit, we can assess the extent of glycolysis inhibition by our glucose uptake inhibitors. Using this experimental set-up in HT1080 cancer cells, we determined the IC50 of glycolysis inhibition for the compounds.
as §3

GLUT3 = biological target: T2, GLUT3 (Homo sapiens, UniProt P11169); assay: glycolysis assay in DLD1 GLUT1−/− cells (rely on GLUT3); settings: DLD1-KO (GLUT1−/−) cells; 10 μM oligomycin, one hour
T2 construct: endogenous in cells; host or cells: DLD1 GLUT1−/− (knock-out) cancer cells
T2 sequence (P11169 1-496): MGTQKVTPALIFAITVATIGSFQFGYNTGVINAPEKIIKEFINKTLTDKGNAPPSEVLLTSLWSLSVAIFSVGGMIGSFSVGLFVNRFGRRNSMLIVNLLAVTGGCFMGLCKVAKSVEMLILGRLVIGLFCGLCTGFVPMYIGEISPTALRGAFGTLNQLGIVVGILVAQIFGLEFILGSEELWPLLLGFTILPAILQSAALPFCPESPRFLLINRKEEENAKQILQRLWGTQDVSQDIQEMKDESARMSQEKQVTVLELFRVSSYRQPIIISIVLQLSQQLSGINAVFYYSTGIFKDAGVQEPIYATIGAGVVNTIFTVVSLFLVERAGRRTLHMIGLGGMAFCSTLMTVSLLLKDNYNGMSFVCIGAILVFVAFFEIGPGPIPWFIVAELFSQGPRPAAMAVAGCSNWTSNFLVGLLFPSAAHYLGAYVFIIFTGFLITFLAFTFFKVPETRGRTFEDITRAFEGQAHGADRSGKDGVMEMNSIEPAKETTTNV
Description: as §1, §2, §3

With COc1ccc2nc(-c3cccc(OCC(=O)NCC(C)C)c3)nc(Nc3ccc(-c4cn[nH]c4)cc3)c2c1 [Ex. 14, 2-(3-(4-((4-(1H-pyrazol-4-yl)phenyl)amino)-6-methoxyquinazolin-2-yl)phenoxy)-N-isobutylacetamide] the IC50 (GLUT1) was 47 nM, the IC50 (GLUT) was 189 nM and the IC50 (GLUT3) was 134 nM.

COc1ccc2nc(-c3cccc(OCC(=O)NC4CC(F)(F)C4)c3)nc(Nc3ccc(-c4cn[nH]c4)cc3)c2c1 [Ex. 15, 2-(3-(4-((4-(1H-pyrazol-4-yl)phenyl)amino)-6-methoxyquinazolin-2-yl)phenoxy)-N-(3,3-difluorocyclobutyl)acetamide] gave an IC50 (GLUT1) of 352 nM, an IC50 (GLUT) of 183 nM and an IC50 (GLUT3) of 86.6 nM.

CCCNC(=O)COc1cccc(-c2nc(Nc3ccc(-c4cn[nH]c4)cc3)c3cc(OCC)ccc3n2)c1 [Ex. 16, 2-(3-(4-((4-(1H-pyrazol-4-yl)phenyl)amino)-6-ethoxyquinazolin-2-yl)phenoxy)-N-propylacetamide] was tested, and the IC50 (GLUT1) was 1020 nM, the IC50 (GLUT) was 536 nM and the IC50 (GLUT3) was 127 nM.

CCOc1ccc2nc(-c3cccc(OCC(=O)NCC(C)C)c3)nc(Nc3ccc(-c4cn[nH]c4)cc3)c2c1 [Ex. 17, 2-(3-(4-((4-(1H-pyrazol-4-yl)phenyl)amino)-6-ethoxyquinazolin-2-yl)phenoxy)-N-isobutylacetamide] showed an IC50 (GLUT1) of 334 nM, an IC50 (GLUT) of 166 nM and an IC50 (GLUT3) of 92.2 nM.

CCOc1ccc2nc(-c3cccc(OCC(=O)NC(C)CC)c3)nc(Nc3ccc(-c4cn[nH]c4)cc3)c2c1 (stereo not drawn) [Ex. 18, 2-(3-(4-((4-(1H-pyrazol-4-yl)phenyl)amino)-6-ethoxyquinazolin-2-yl)phenoxy)-N-(sec-butyl)acetamide] showed an IC50 (GLUT1) of 99.5 nM, an IC50 (GLUT) of 89 nM and an IC50 (GLUT3) of 43.9 nM.

Work on CCOc1ccc2nc(-c3cccc(OCC(=O)NC4CC(F)(F)C4)c3)nc(Nc3ccc(-c4cn[nH]c4)cc3)c2c1 [Ex. 19, 2-(3-(4-((4-(1H-pyrazol-4-yl)phenyl)amino)-6-ethoxyquinazolin-2-yl)phenoxy)-N-(3,3-difluorocyclobutyl)acetamide] yielded an IC50 (GLUT1) of 257 nM, an IC50 (GLUT) of 169 nM and an IC50 (GLUT3) of 66.1 nM.

COc1ccc2nc(-c3cccc(OCC(=O)NC(C)C)c3)nc(Nc3ccc(-c4cn[nH]c4)cc3F)c2c1 [Ex. 20, 2-(3-(4-((2-fluoro-4-(1H-pyrazol-4-yl)phenyl)amino)-6-methoxyquinazolin-2-yl)phenoxy)-N-isopropylacetamide] gave an IC50 (GLUT1) of 709 nM, an IC50 (GLUT) of 423 nM and an IC50 (GLUT3) of 177 nM.

CCOc1ccc2nc(-c3cccc(OCC(=O)NC(C)C)c3)nc(Nc3ccc(-c4cn[nH]c4)cc3F)c2c1 [Ex. 21, 2-(3-(6-ethoxy-4-((2-fluoro-4-(1H-pyrazol-4-yl)phenyl)amino)quinazolin-2-yl)phenoxy)-N-isopropylacetamide] gave an IC50 (GLUT1) of 786 nM, an IC50 (GLUT) of 408 nM and an IC50 (GLUT3) of 248 nM.

Work on CCC(C)NC(=O)COc1cccc(-c2nc(Nc3ccc(-c4cn[nH]c4)cc3)c3cc(OC)ccc3n2)c1 (stereo not drawn) [Ex. 22, 2-(3-(4-((4-(1H-pyrazol-4-yl)phenyl)amino)-6-methoxyquinazolin-2-yl)phenoxy)-N-(sec-butyl)acetamide] yielded an IC50 (GLUT1) of 105 nM, an IC50 (GLUT) of 112 nM and an IC50 (GLUT3) of 66.8 nM.

With COc1ccc2nc(-c3cccc(OCC(=O)NC(CF)CF)c3)nc(Nc3ccc(-c4cn[nH]c4)cc3)c2c1 [Ex. 23, 2-(3-(4-((4-(1H-pyrazol-4-yl)phenyl)amino)-6-methoxyquinazolin-2-yl)phenoxy)-N-(1,3-difluoropropan-2-yl)acetamide] the IC50 (GLUT1) was 463 nM, the IC50 (GLUT) was 258 nM and the IC50 (GLUT3) was 110 nM.

In the case of CCOc1ccc2nc(-c3cccc(OCC(=O)NCC(F)(F)F)c3)nc(Nc3ccc(-c4cn[nH]c4)cc3)c2c1 [Ex. 24, 2-(3-(4-((4-(1H-pyrazol-4-yl)phenyl)amino)-6-ethoxyquinazolin-2-yl)phenoxy)-N-(2,2,2-trifluoroethyl)acetamide], the IC50 (GLUT1) is reported as 801 nM, the IC50 (GLUT) is reported as 454 nM and the IC50 (GLUT3) is reported as 86 nM.

With COc1ccc2nc(-c3cccc(OCC(=O)NCC(F)(F)F)c3)nc(Nc3ccc(-c4cn[nH]c4)cc3)c2c1 [Ex. 25, 2-(3-(4-((4-(1H-pyrazol-4-yl)phenyl)amino)-6-methoxyquinazolin-2-yl)phenoxy)-N-(2,2,2-trifluoroethyl)acetamide] the IC50 (GLUT1) was 1070 nM, the IC50 (GLUT) was 433 nM and the IC50 (GLUT3) was 68.4 nM.

Compound CCOc1ccc2nc(-c3cccc(OCC(=O)NC(C)(C)C)c3)nc(Nc3ccc(-c4cc[nH]n4)cc3)c2c1 [Ex. 27, 2-(3-(4-((4-(1H-Pyrazol-3-yl)phenyl)amino)-6-ethoxyquinazolin-2-yl)phenoxy)-N-(tert-butyl)acetamide] has an IC50 (GLUT1) of 252 nM, an IC50 (GLUT) of 310 nM and an IC50 (GLUT3) of 116 nM.

CCOc1ccc2nc(-c3cccc(OCC(=O)NC(C)C)c3)nc(Nc3ccc(-c4cc[nH]n4)cc3)c2c1 [Ex. 28, 2-(3-(4-((4-(1H-Pyrazol-3-yl)phenyl)amino)-6-ethoxyquinazolin-2-yl)phenoxy)-N-isopropylacetamide] showed an IC50 (GLUT1) of 496 nM, an IC50 (GLUT) of 545 nM and an IC50 (GLUT3) of 105 nM.

Work on CC(C)(C)NC(=O)COc1cccc(-c2nc(Nc3ccc(-c4cn[nH]c4)cc3)c3cc(F)ccc3n2)c1 [Ex. 29, 2-(3-(4-((4-(1H-Pyrazol-4-yl)phenyl)amino)-6-fluoroquinazolin-2-yl)phenoxy)-N-(tert-butyl)acetamide] yielded an IC50 (GLUT1) of 124 nM, an IC50 (GLUT) of 123 nM and an IC50 (GLUT3) of 142 nM.

In the case of CC(C)(C)NC(=O)COc1cccc(-c2nc(Nc3ccc(-c4cn[nH]c4)cc3)c3ccc(F)cc3n2)c1 [Ex. 30, 2-(3-(4-((4-(1H-Pyrazol-4-yl)phenyl)amino)-7-fluoroquinazolin-2-yl)phenoxy)-N-(tert-butyl)acetamide], the IC50 (GLUT1) is reported as 624 nM, the IC50 (GLUT) is reported as 425 nM and the IC50 (GLUT3) is reported as 195 nM.

COCCOc1ccc2nc(-c3cccc(OCC(=O)NC(C)C)c3)nc(Nc3ccc(-c4cn[nH]c4)cc3)c2c1 [Ex. 31, 2-(3-(4-((4-(1H-Pyrazol-4-yl)phenyl)amino)-6-(2-methoxyethoxy)quinazolin-2-yl)phenoxy)-N-isopropylacetamide] was tested, and the IC50 (GLUT1) was 62.1 nM, the IC50 (GLUT) was 53.5 nM and the IC50 (GLUT3) was 59.2 nM.

CCCOc1ccc2nc(-c3cccc(OCC(=O)NC(C)C)c3)nc(Nc3ccc(-c4cn[nH]c4)cc3)c2c1 [Ex. 32, 2-(3-(4-((4-(1H-Pyrazol-4-yl)phenyl)amino)-6-propoxyquinazolin-2-yl)phenoxy)-N-isopropylacetamide] was tested, and the IC50 (GLUT1) was 178 nM, the IC50 (GLUT) was 188 nM and the IC50 (GLUT3) was 305 nM.

Work on CC(C)NC(=O)COc1cccc(-c2nc(Nc3ccc(-c4cn[nH]c4)cc3)c3cc(F)ccc3n2)c1 [Ex. 33, 2-(3-(4-((4-(1H-pyrazol-4-yl)phenyl)amino)-6-fluoroquinazolin-2-yl)phenoxy)-N-isopropylacetamide] yielded an IC50 (GLUT1) of 802 nM, an IC50 (GLUT) of 424 nM and an IC50 (GLUT3) of 183 nM.

Work on CC(C)NC(=O)COc1cccc(-c2nc(Nc3ccc(-c4cn[nH]c4)cc3)c3ccc(F)cc3n2)c1 [Ex. 34, 2-(3-(4-((4-(1H-Pyrazol-4-yl)phenyl)amino)-7-fluoroquinazolin-2-yl)phenoxy)-N-isopropylacetamide] yielded an IC50 (GLUT1) of 797 nM, an IC50 (GLUT) of 418 nM and an IC50 (GLUT3) of 197 nM.
